Source: US6500811B2, “Sulfonylaminophosphinic and sulfonylaminophosphonic acid derivatives, methods for their preparation and use” (Aventis Pharma Deutschland GmbH, priority 1998, dated 2002)

What was measured:
Type in all cases: biochemical
aggrecanase = test: Aggrecanase activity from rat chondrosarcoma cell supernatant, rAgg1mut cleavage detected by BC-3 Western blot; conditions: RCS cell culture supernatant, 1 h preincubation, 4 h incubation with rAgg1mut
Description: Preparation and determination of the enzymatic activity of the catalytic domain of aggrecanase using rat chondrosarcoma cells:
For the generation of the as yet not identified “aggrecanase” activity, rat chondrosarcoma cells (RCS) were used. Lark et al.; 270 J. BIOL. CHEM. 2550 (1995). These cells were inoculated into 96-well cell culture plates precoated with poly-L-lysine (80,000 cells/well). After stimulation of the RCS cells with retinoic acid (0.67 μM) and an incubation time of 47 hours (h) at 37° C. and 5% CO2, these cells generate the “aggrecanase” activity. The test substance compound 1 was then preincubated for 1 h in the “aggrecanase”-containing cell culture supernatant before 5 μg of eucaryotic rAgg1mut (Buttner et al., 333 BIOCHEM. J. 159 (1998); Hughes et al., 272 J. BIOL. CHEM. 20269 (1997)) were added for the detection of the “aggrecanase” cleavage activity in the cell culture supernatant of the RCS cells. After an incubation time of 4 h, the cell culture supernatant was removed and the cleavage products of the rAgg1mut fusion proteins generated by the “aggrecanase” activity were detected by means of SDS-polyacrylamide gel electrophoresis and Western Blot analyses with the monoclonal antibody BC-3. Hughes et al., 305 BIOCHEM. J. 799 (1995). […] The less cleaved rAgg1mut was detected, the more efficacious was the tested compound of the formula I.
The IC50 values listed in Table 3 are determined as those inhibitor concentrations which in each case led to a 50% inhibition of the enzyme aggrecanase.

[1] = biological target: T1, neutrophil collagenase (MMP-8) (Homo sapiens, UniProt P22894); test: Enzymatic activity of the catalytic domain of neutrophil collagenase, fluorogenic substrate; conditions: pH 6.5, 15 min preincubation
T1 construct: catalytic domain of human stromelysin and of neutrophil collagenase; made in house
Description: (§1) Preparation and determination of the enzymatic activity of the catalytic domain of human stromelysin and of neutrophil collagenase.
(§2) The two enzymes—stromelysin (“MMP-3”) and neutrophil collagenase (“MMP-8”)—were prepared according to Ye et al., 31 BIOCHEMISTRY 11231 (1992). For the measurement of the enzyme activity or of the enzyme inhibitor action, 70 μl of buffer solution and 10 μl of enzyme solution are incubated for 15 minutes with 10 μl of a 10% strength (v/v) aqueous dimethyl sulfoxide solution which optionally contains the enzyme inhibitor. After addition of 10 μl of a 10% strength (v/v) aqueous dimethyl sulfoxide solution which contains 1 mmol/l of the substrate, the enzyme reaction is monitored by fluorescence spectroscopy (328 nm (ex)/393 nm(em)).
(§3) The enzyme activity is shown as extinction increase/minute. The IC50 values listed in Table 2 are determined as those inhibitor concentrations which in each case lead to a 50% inhibition of the enzyme.
(§4) The buffer solution contains 0.05% Brij (Sigma, Deisenhofen, Germany) and 0.1 mol/l of tris/HCl, 0.1 mol/l of NaCl, 0.01 mol/l of CaCl2 and 0.1 mol/l of piperazine-N,N′-bis[2-ethanesulfonic acid] (pH=6.5).
(§5) The enzyme solution contains 5 μg/ml of one of the enzyme domains prepared according to Ye et al. The substrate solution contains 1 mmol/l of the fluorogenic substrate (7-methoxycoumarin4-yl)acetyl-Pro-Leu-Gly-Leu-3-(2′,4′-dinitrophenyl)-L-2,3-diaminopropionyl-Ala-Arg-NH2 (Bachem, Heidelberg, Germany).

stromelysin (MMP-3) = biological target: T2, stromelysin (MMP-3) (Homo sapiens, UniProt P08254); test: Enzymatic activity of the catalytic domain of human stromelysin, fluorogenic substrate; conditions: pH 6.5, 15 min preincubation
T2 construct: enzymatic activity of the catalytic domain of human stromelysin; made in house
Description: as §1, §2, §3, §4, §5

T2 sequence (P08254 100-272 limits assumed): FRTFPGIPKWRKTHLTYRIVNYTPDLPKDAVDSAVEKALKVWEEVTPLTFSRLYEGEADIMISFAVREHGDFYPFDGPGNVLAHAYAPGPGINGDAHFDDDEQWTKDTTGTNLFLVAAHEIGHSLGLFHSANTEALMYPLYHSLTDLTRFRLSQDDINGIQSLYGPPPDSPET
T1 sequence (P22894 100-262 limits assumed): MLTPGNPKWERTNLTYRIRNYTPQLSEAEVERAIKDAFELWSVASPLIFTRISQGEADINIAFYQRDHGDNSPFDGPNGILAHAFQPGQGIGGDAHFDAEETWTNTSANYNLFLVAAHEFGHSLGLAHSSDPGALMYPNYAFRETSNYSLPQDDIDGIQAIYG

CC(NS(=O)(=O)CCc1ccc(-c2ccc(Cl)cc2)cc1)P(=O)(O)O (stereo not drawn) [Example 20]
IC50 (aggrecanase): 4700 nM | IC50 [1]: 2 nM | IC50 (stromelysin (MMP-3)): 8 nM

CCCCOc1ccc(S(=O)(=O)N[C@@H](C(C)C)P(=O)(O)O)cc1 [Example 24]
IC50 [1]: 30 nM | IC50 (stromelysin (MMP-3)): 400 nM

CC(NS(=O)(=O)c1ccc(-c2ccc(N3CCCC3)cc2)cc1)P(=O)(O)O (stereo not drawn) [Example 22]
IC50 (aggrecanase): 8300 nM | IC50 [1]: 20 nM | IC50 (stromelysin (MMP-3)): 20 nM

CC(NS(=O)(=O)c1ccc(-c2ccc(Cl)cc2)cc1)P(=O)(O)O (racemic) [Example 5, (R,S)-[1-(4′-Chlorobiphenyl-4-sulfonylamino)ethyl]phosphonic acid]
IC50 (aggrecanase): 25000 nM | IC50 [1]: 5 nM | IC50 (stromelysin (MMP-3)): 100 nM

CC(C)[C@H](NS(=O)(=O)c1ccc(-c2ccc(Cl)cc2)cc1)P(=O)(O)O [Example 1, (R)-[1-(4′-Chlorobiphenyl-4-sulfonylamino)-2-methylpropyl]-phosphonic acid]
IC50 (aggrecanase): 600 nM | IC50 [1]: 1 nM | IC50 (stromelysin (MMP-3)): 6 nM

CC(C)[C@H](NS(=O)(=O)c1ccc(-c2ccc(N3CCCC3)cc2)cc1)P(=O)(O)O [Example 19]
IC50 [1]: 2 nM | IC50 (stromelysin (MMP-3)): 5 nM

O=P(O)(O)CCNS(=O)(=O)c1ccc(-c2ccc(N3CCCC3)cc2)cc1 [Example 16]
IC50 (aggrecanase): 28000 nM

O=P(O)(O)CCNS(=O)(=O)c1ccc(-c2ccc(Cl)cc2)cc1 [Example 13]
IC50 (aggrecanase): 50000 nM

CCOP(=O)(O)C(O)CC(NS(=O)(=O)c1ccc(-c2ccc(Cl)cc2)cc1)c1ccccc1 (stereo not drawn) [Example 15]
IC50 (aggrecanase): 67000 nM

O=C(O)C(CP(=O)(O)O)NS(=O)(=O)c1ccc(-c2ccc(Cl)cc2)cc1 (stereo not drawn) [Example 12]
IC50 (aggrecanase): 50000 nM

CC(C)[C@H](NS(=O)(=O)CCc1ccc(-c2ccc(Cl)cc2)cc1)P(=O)(O)O [Example 25]
IC50 [1]: 2 nM | IC50 (stromelysin (MMP-3)): 3 nM

COP(=O)(OC)C(O)CC(NS(=O)(=O)c1ccc(-c2ccc(Cl)cc2)cc1)c1ccc(C(F)(F)F)cc1 (stereo not drawn) [Example 10]
IC50 (aggrecanase): 2100 nM

O=C(O)C(CCC(NS(=O)(=O)c1ccc(-c2ccc(Cl)cc2)cc1)P(=O)(O)O)NS(=O)(=O)c1ccc(-c2ccc(Cl)cc2)cc1 (stereo not drawn) [Example 21]
IC50 (aggrecanase): 520 nM

O=C(O)C(CP(=O)(O)O)NS(=O)(=O)c1ccc(-c2ccc(N3CCCC3)cc2)cc1 (stereo not drawn) [Example 17]
IC50 (aggrecanase): 69000 nM

O=P(O)(O)C(Cc1c[nH]c2ccccc12)NS(=O)(=O)c1ccc(-c2ccc(Cl)cc2)cc1 (racemic) [Example 4, (R,S)-[1-(4′-Chlorobiphenyl-4-sulfonylamino)-2-(1H-indol-3-yl)-ethyl]phosphonic acid]
IC50 (aggrecanase): 12000 nM | IC50 [1]: 60 nM | IC50 (stromelysin (MMP-3)): 500 nM

CC(C)[C@@H](NS(=O)(=O)c1ccc(-c2ccc(Cl)cc2)cc1)P(=O)(O)O [Example 18]
IC50 (aggrecanase): 60000 nM | IC50 [1]: 1000 nM | IC50 (stromelysin (MMP-3)): 10000 nM

O=P(O)(O)C(NS(=O)(=O)c1ccc(-c2ccc(Cl)cc2)cc1)c1ccccc1 (racemic) [Example 3, (R,S)-[(4′-Chlorobiphenyl-4-sulfonylamino)phenylmethyl]-phosphonic acid]
IC50 (aggrecanase): 22000 nM | IC50 [1]: 7 nM | IC50 (stromelysin (MMP-3)): 100 nM

CCOP(=O)(O)C(NS(=O)(=O)c1ccc(-c2ccc(Cl)cc2)cc1)c1ccccc1 (racemic) [Example 2, Monoethyl (R,S)-[1-(4′-chlorobiphenyl-4-sulfonylamino)-1-phenylmethyl]phosphonate]
IC50 (aggrecanase): 79000 nM | IC50 [1]: 200 nM | IC50 (stromelysin (MMP-3)): 5000 nM

O=C(O)C(CCP(=O)(O)O)NS(=O)(=O)c1ccc(-c2ccc(Cl)cc2)cc1 (stereo not drawn) [Example 14]
IC50 (aggrecanase): 55000 nM

O=P(O)(O)C(O)CC(NS(=O)(=O)c1ccc(-c2ccc(Cl)cc2)cc1)c1ccccc1 (stereo not drawn) [Example 8]
IC50 (aggrecanase): 15000 nM

CC(C)CC(NS(=O)(=O)c1ccc(-c2ccc(Cl)cc2)cc1)P(=O)(O)O (racemic) [Example 6, (R,S)-[1-(4′-chlorobiphenyl-4-sulfonylamino)-3-methylbutyl]-phosphonic acid]
IC50 (aggrecanase): 2400 nM | IC50 [1]: 3 nM | IC50 (stromelysin (MMP-3)): 30 nM
